Here are results for 9 compounds from patent US10940188B2, “Compounds and methods for treatment and prevention of Flavivirus infection” (priority 2016, dated 2021).

The subject of test [1] is ZIKV-induced caspase 3/7 activity in hNPCs. Description: Caspase 3/7 activity assay, ZIKV-infected hNPCs. It counts as cell-based. The conditions noted are these: for Emax: read-out: Caspase 3 (efficacy, %) NPCs; for IC50: read-out: Caspase 3 (IC50, uM) NPCs. Here is the method:
(§1) Caspase-Glo 3/7 assay kit (catalog number G8092; Promega, Madison, Wis.) was used to detect caspase 3/7 activity. Reagents were reconstituted as described in the protocol from the manufacturer. Polystyrene plates (384-well and 1536-well; regular tissue culture treated and PDL coated) were purchased from Greiner Bio-One (Monroe, N.C.). Cells were seeded in 384- and 1536-well assay plates and cultured at 37° C. with 5% CO2 for 16 hours. ZIKV solution was added to cells, followed by incubation at 37° C. with 5% CO2 for 6 hours. Caspase-Glo 3/7 was added to each well, unless otherwise specified, and incubated at room temperature for 30 minutes. The luminescence intensity of the assay plates was measured using a ViewLux plate reader (PerkinElmer). Data were normalized by using the cell-containing wells without ZIKV as a negative control (0% induction of caspase 3/7 activity) and wells containing ZIKV infected cells that induced caspase 3/7 activity were used as a positive control (100% induction of caspase 3/7 activity).
Human NPCs were seeded onto PDL coated 1536-well assay plates at 250 cells per 3 μl/well and incubated at 37° C. in 5% CO2 for 16 hours. Test compounds dissolved in DMSO were transferred to assay plates at a volume of 23 nl/well by an automated pintool workstation (Wako Automation, San Diego, Calif.). Compounds were incubated with cells for 30 minutes at 37° C. in 5% CO2, immediately followed by the addition of 2 μl/well of ZIKV. Incubation time of compound-treated cells with ZIKV varied based on assay format. Experiments measuring virus-induced caspase 3/7 activity required a 6 hour incubation of ZIKV in the presence compounds at 37° C. in 5% CO2. Following this incubation, 3.5 μl/well of caspase 3/7 reagent mixture was added to assay plates. The plates were incubated for 30 minutes at room temperature, and the resultant luminescence signal was measured using a ViewLux plate reader (Perkin Elmer). Experiments measuring virus-induced cell death required a 72-hour incubation of ZIKV in the presence of compounds at 37° C. in 5% CO2. Following this incubation, 3.5 μl/well of ATP content detection reagent was added to assay plates, incubated for 30 minutes at the room temperature, and the resultant luminescence signal was measured in a ViewLux plate reader.
(§2) Caspase-Glo 3/7 assay kit (Promega) was used to detect caspase 3/7 activity. Reagents were reconstituted as described in the protocol from the manufacturer. Cells were seeded in 384- and 1536-well assay plates and cultured at 37° C. with 5% CO2 for 16 hours. ZIKV solution was added to cells, followed by incubation at 37° C. with 5% CO2 for 6 hours. Caspase-Glo 3/7 was added to each well at a 1:1 ratio, unless otherwise specified, and incubated at room temperature for 30 minutes. The luminescence intensity of the assay plates was measured using a ViewLux plate reader (PerkinElmer). Data was normalized by using the cell-containing wells without ZIKV as a negative (0% induction of caspase 3/7 activity) control and wells containing ZIKV infected cells that induced caspase 3/7 activity were used as a positive control (100% induction of caspase 3/7 activity).
Human NPCs were seeded onto PDL coated 1536-well assay plates at 250 cells per 3 μl/well and incubated at 37° C. in 5% CO2 for 16 hours. Test compounds dissolved in DMSO were transferred to assay plates at a volume of 23 nl/well by an automated pintool workstation (Wako Automation, San Diego, Calif.). Compounds were incubated with cells for 30 minutes at 37° C. in 5% CO2, immediately followed by the addition of 2 μl/well of ZIKV. Incubation time of compound-treated cells with ZIKV varied based on assay format. Experiments measuring virus induced caspase 3/7 activity required a 6 hour incubation of ZIKV in the presence compounds at 37° C. in 5% CO2. […]

For test [2], the system named is ZIKV-induced cell death in human astrocytes. Description: ATP cell viability assay for ZIKV-induced cell death, human astrocytes. The conditions noted are these: for IC50: read-out: Cell viability (IC50, uM) Astrocyte. Format: cell-based.
Test [3] has as its system ZIKV-induced caspase 3/7 activity in human astrocytes. The test can be described thus: Caspase 3/7 activity assay, ZIKV-infected human astrocytes. Format: cell-based. The following applies: for IC50: read-out: Caspase 3 (IC50, uM) Astrocyte; for Emax: read-out: Caspase 3 (efficacy, %) Astrocyte. Here is the method: as §1, with “activity). […]” for “activity).”
as §2, with “activity). […]” for “activity).”

The subject of test [4] is ZIKV-induced caspase 3/7 activity in SNB-19 cells. Description: Caspase 3/7 activity assay, ZIKV-infected SNB-19 cells. Format: cell-based. As for the experimental part:
as §1, with “activity). […]” for “activity).”
as §2, with “activity). […]” for “activity).”

Test [5] relates to ZIKV-induced cell death in SNB-19 cells. Description: ATP cell viability assay for ZIKV-induced cell death, SNB-19 cells. It counts as cell-based, human. As for the experimental part: (§3) The reagent was reconstituted and prepared as described by the manufacturer. In order to measure the cell death caused by ZIKV infection, cells were cultured for 16 hours at 37° C. with 5% CO2 in assay plates, followed by the addition of ZIKV solution and incubation at 37° C. with 5% CO2 for 72 hours. ATPlite, the ATP monitoring reagent, was then added to the assay plates and they were incubated for 15 minutes. The resulting luminescence was measured using the ViewLux plate reader (Perkin Elmer). Data were normalized using the wells without cells as a control for 100% cell killing, and cell-containing wells without ZIKV infection were used as full cell viability (0% cell killing). […]
as §3, with “The ATPlite luminescence assay system assay kit (PerkinElmer) was used to determine cell viability. The reagent” for “The reagent”, “by the manufacture. In order” for “by the manufacturer. In order”, “followed by addition of” for “followed by the addition of”, “plates and incubated for” for “plates and they were incubated for”, “Elmer). Data was normalized using” for “Elmer). Data were normalized using”

[6] abbreviates: Homo sapiens, ZIKV-infected hNPCs.
The mark [7] stands for this setting: Astrocyte, ZIKV-infected human astrocytes.
The mark [8] stands for this setting: Homo sapiens, ZIKV-infected SNB-19 cells, read-out: Caspase 3 (IC50, uM) SNB-19.
[9] abbreviates: Homo sapiens, ZIKV-infected SNB-19 cells, read-out: Caspase 3 (efficacy, %) SNB-19.
[10] abbreviates: Homo sapiens, ZIKV-infected SNB-19 cells, read-out: Cell viability (IC50, uM) SNB-19.

Counter-ions that a name gives are not always drawn. Like-named read-outs stand apart in the source and are kept apart here.

`COc1cccc2c1C(=O)c1c(O)c3c(c(O)c1C2=O)C[C@@](O)(C(=O)CO)C[C@@H]3O[C@H]1C[C@H](N2CCO[C@H](OC)C2)[C@H](O)[C@H](C)O1` [Nemorubicin]: the Emax in test [1] (Homo sapiens) turned out to be 82.9%; in test [3] (Homo sapiens, Astrocyte) it was 42.6%; in test [4] (Homo sapiens, SNB-19, read-out: Caspase 3 (efficacy, %) SNB-19) it was 53.1%. Besides, the IC50 in test [2] (Homo sapiens, Astrocyte) was 0.87 µM; in test [3] (Homo sapiens, Astrocyte), 15.5 µM; in test [4] (Homo sapiens, SNB-19, read-out: Caspase 3 (IC50, uM) SNB-19), 30.8 µM; in test [5] (Homo sapiens, SNB-19, read-out: Cell viability (IC50, uM) SNB-19), 0.41 µM. For the same compound, in test [2] (ZIKV-infected human astrocytes), the “Cell viability (efficacy, %) Astrocyte” value amounted to 146%. In addition, the “Cell viability (efficacy, %) SNB-19” value in test [5] (ZIKV-infected SNB-19 cells) is recorded as 117%.
For `C/C(O)=C(\C#N)C(=O)Nc1ccc(C(F)(F)F)cc1` [Teriflunomide], the IC50 in test [1] (setting [6]) is 0.92 µM; in test [3] (setting [7]), 1.3 µM; in test [4] (setting [8]), 1.03 µM. The Emax in test [1] (setting [6]) was determined as 94.5%; in test [3] (setting [7]), 86.9%; in test [4] (setting [9]), 93.1%. The “Cell viability (efficacy, %) Astrocyte” value in test [2] (ZIKV-infected human astrocytes) is given as 0.0%. Moreover, the “Cell viability (efficacy, %) SNB-19” value in test [5] (ZIKV-infected SNB-19 cells) is listed as 0.0%.
`O=c1cc(-c2ccccc2)oc2cc(O)c(O)c(O)c12` [Baicalein]: the values for the 50% inhibitory concentration (IC50) in test [1] (setting [6]) and in test [4] (setting [8]) were 18.4 µM and 29.1 µM, respectively. Besides, the Emax came out at 57.5% in test [1] (setting [6]), 0% in test [3] (setting [7]) and 50.6% in test [4] (setting [9]). Further, the “Cell viability (efficacy, %) Astrocyte” value in test [2] (ZIKV-infected human astrocytes) amounted to 0.0%. Moreover, the “Cell viability (efficacy, %) SNB-19” value in test [5] (ZIKV-infected SNB-19 cells) turned out to be 0.0%.
For the compound `CN(C)c1ccc(N=NS(=O)(=O)[O-])cc1.[Na+]` [Fenaminosulf], in test [1] (ZIKV-infected hNPCs), the “Caspase 3 (efficacy, %) NPCs” value is 0.0%. Moreover, the “Cell viability (efficacy, %) Astrocyte” value in test [2] (ZIKV-infected human astrocytes) came out at 0.0%. In test [3] (ZIKV-infected human astrocytes), the “Caspase 3 (efficacy, %) Astrocyte” value is reported as 58.5% and the IC50 is 35.5 µM. Further, the “Caspase 3 (efficacy, %) SNB-19” value in test [4] (ZIKV-infected SNB-19 cells) was found to be 0.0%. The “Cell viability (efficacy, %) SNB-19” value in test [5] (ZIKV-infected SNB-19 cells) stood at 36.7%. Moreover, the IC50 in test [5] (ZIKV-infected SNB-19 cells, read-out: Cell viability (IC50, uM) SNB-19) was found to be 15.8 µM.
For `COc1ccc(-c2coc3cc(O)ccc3c2=O)cc1` [Formononetin], the figures for the IC50 in test [1] (setting [6]), in test [3] (setting [7]) and in test [4] (setting [8]) were 10.9 µM, 14.6 µM and 12.3 µM, respectively. The Emax in test [1] (setting [6]) turned out to be 88.3%; in test [3] (setting [7]) it was 94.7%; in test [4] (setting [9]) it was 104%. The “Cell viability (efficacy, %) Astrocyte” value in test [2] (ZIKV-infected human astrocytes) amounted to 0.0%. For the same compound, the “Cell viability (efficacy, %) SNB-19” value in test [5] (ZIKV-infected SNB-19 cells) amounted to 0.0%.
With `O=C(Nc1ccc(OC(F)(F)F)cc1)c1sccc1NCc1ccnc2ccccc12` [OSI-930], the IC50 in test [1] (setting [6]) was 6.9 µM; in test [3] (setting [7]) it was 8.2 µM; in test [4] (setting [8]) it was 6.9 µM; in test [5] (setting [10]), 3.08 µM. The values for the Emax in test [1] (setting [6]), in test [3] (setting [7]) and in test [4] (setting [9]) were 96.9%, 91.5% and 114%, respectively. Besides, in test [2] (ZIKV-infected human astrocytes), the “Cell viability (efficacy, %) Astrocyte” value was 0.0%. Besides, the “Cell viability (efficacy, %) SNB-19” value in test [5] (ZIKV-infected SNB-19 cells) came out at 71.2%.
In the case of `COc1ccc([C@@H]2CC(=O)c3c(O)cc(O)cc3O2)cc1O` [Hesperetin], the figures for the IC50 in test [1] (setting [6]), in test [3] (setting [7]) and in test [4] (setting [8]) were 10.9 µM, 16.4 µM and 17.3 µM, respectively. For the same compound, the Emax in test [1] (setting [6]) worked out at 79.6%; in test [3] (setting [7]) it was 72.7%; in test [4] (setting [9]) it was 86%. Besides, the “Cell viability (efficacy, %) Astrocyte” value in test [2] (ZIKV-infected human astrocytes) is reported as 0.0%. Moreover, the “Cell viability (efficacy, %) SNB-19” value in test [5] (ZIKV-infected SNB-19 cells) is on record as 0.0%.
For the compound `Nc1ccc(/N=N/c2ccccc2)c(N)n1` [Phenazopyridine hydrochloride], the IC50 in test [1] (setting [6]) is 11.6 µM; in test [3] (setting [7]), 15.5 µM; in test [4] (setting [8]), 16.4 µM; in test [5] (setting [10]) it was 27.5 µM. Moreover, the figures for the Emax in test [1] (setting [6]), in test [3] (setting [7]) and in test [4] (setting [9]) were 72.5%, 69.9% and 73.7%, respectively. Moreover, in test [2] (ZIKV-infected human astrocytes), the “Cell viability (efficacy, %) Astrocyte” value came out at 0.0%. The “Cell viability (efficacy, %) SNB-19” value in test [5] (ZIKV-infected SNB-19 cells) is 35.3%.
For the compound `Nc1ccc(-c2ccc3ccccc3n2)cc1` [BF-170 hydrochloride], in test [1] (ZIKV-infected hNPCs), the “Caspase 3 (efficacy, %) NPCs” value is 92.7% and the IC50 is 4.11 µM. For the same compound, in test [2] (ZIKV-infected human astrocytes), the “Cell viability (efficacy, %) Astrocyte” value amounted to 65.8% and the IC50 turned out to be 6.15 µM. Further, in test [3] (ZIKV-infected human astrocytes), the “Caspase 3 (efficacy, %) Astrocyte” value turned out to be 118% and the IC50 turned out to be 4.61 µM. Also, in test [4] (ZIKV-infected SNB-19 cells), the “Caspase 3 (efficacy, %) SNB-19” value stood at 104%. The IC50 in test [4] (ZIKV-infected SNB-19 cells, read-out: Caspase 3 (IC50, uM) SNB-19) is 6.15 µM. In test [5] (ZIKV-infected SNB-19 cells), the “Cell viability (efficacy, %) SNB-19” value amounted to 0.0%.
